Values quoted from earlier work in patent US6994864B2, “Composition containing 7-hydroxy DHEA and/or 7-keto DHEA and at least a carotenoid” (L'Oreal, priority 2000, dated 2006).

Columns and labels:
skin of rats = settings: on rats

Compound: C[C@]12CC[C@H](O)CC1=C[C@@H](O)[C@@H]1[C@@H]2CC[C@]2(C)C(=O)CC[C@@H]12 [7α-hydroxy-DHEA]
- viability of the human keratinocytes (human keratinocytes): increase
- elastin and collagen content of the skin (skin of rats): increased
- thickness of the dermis (skin of rats): increased
- proliferation of the fibroblasts (fibroblasts): increase
